From the supplement of paper PMC10307832

Assays:
Assay in all cases: relative viability (nuclei count vs DMSO), 5 days (fraction); higher = more cells survive
Dinaciclib + Tozasertib = compound: CCc1cnn2c(NCc3ccc[n+]([O-])c3)cc(N3CCCC[C@H]3CCO)nc12 [Dinaciclib] + Cc1cc(Nc2cc(N3CCN(C)CC3)nc(Sc3ccc(NC(=O)C4CC4)cc3)n2)n[nH]1 [Tozasertib] (partner 0.1 µM)
Procedure, shortened: (§1)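 Lung cancer cell lines were pin-tool dosed in 1536-well plates on the day after seeding, with either a lone drug or a fixed anchor-drug dose plus five library-drug doses (not always all listed) in √10 steps. Nuclei were counted on 4× images after 5 days. Relative viability is the ratio of treated-well to vehicle-well nuclei counts, with each value a median of duplicate plates.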

Dinaciclib + Vorinostat = compound: CCc1cnn2c(NCc3ccc[n+]([O-])c3)cc(N3CCCC[C@H]3CCO)nc12 [Dinaciclib] + O=C(CCCCCCC(=O)Nc1ccccc1)NO [Vorinostat] (partner 1 µM)
Procedure, shortened: as §1

Dinaciclib + Olaparib = compound: CCc1cnn2c(NCc3ccc[n+]([O-])c3)cc(N3CCCC[C@H]3CCO)nc12 [Dinaciclib] + O=C(c1cc(Cc2n[nH]c(=O)c3ccccc23)ccc1F)N1CCN(C(=O)C2CC2)CC1 [Olaparib] (partner 8 µM)
Procedure, shortened: as §1

Dinaciclib + Linsitinib = compound: CCc1cnn2c(NCc3ccc[n+]([O-])c3)cc(N3CCCC[C@H]3CCO)nc12 [Dinaciclib] + C[C@]1(O)C[C@@H](c2nc(-c3ccc4ccc(-c5ccccc5)nc4c3)c3c(N)nccn32)C1 [Linsitinib] (partner 1 µM)
Procedure, shortened: as §1

Dinaciclib + Dasatinib = compound: CCc1cnn2c(NCc3ccc[n+]([O-])c3)cc(N3CCCC[C@H]3CCO)nc12 [Dinaciclib] + Cc1nc(Nc2ncc(C(=O)Nc3c(C)cccc3Cl)s2)cc(N2CCN(CCO)CC2)n1 [Dasatinib] (partner 0.075 µM)
Procedure, shortened: as §1

Row | Cell Line | relative viability (Dinaciclib + Tozasertib; first compound 0.009487 µM) | relative viability (Dinaciclib + Tozasertib; first compound 0.03 µM) | relative viability (Dinaciclib + Tozasertib; first compound 0.09487 µM) | relative viability (Dinaciclib + Tozasertib; first compound 0.3 µM) | relative viability (Dinaciclib + Vorinostat; first compound 0.009487 µM) | relative viability (Dinaciclib + Vorinostat; first compound 0.03 µM) | relative viability (Dinaciclib + Vorinostat; first compound 0.09487 µM) | relative viability (Dinaciclib + Vorinostat; first compound 0.3 µM) | relative viability (Dinaciclib + Olaparib; first compound 0.009487 µM) | relative viability (Dinaciclib + Olaparib; first compound 0.03 µM) | relative viability (Dinaciclib + Olaparib; first compound 0.09487 µM) | relative viability (Dinaciclib + Olaparib; first compound 0.3 µM) | relative viability (Dinaciclib + Linsitinib; first compound 0.009487 µM) | relative viability (Dinaciclib + Linsitinib; first compound 0.03 µM) | relative viability (Dinaciclib + Linsitinib; first compound 0.09487 µM) | relative viability (Dinaciclib + Linsitinib; first compound 0.3 µM) | relative viability (Dinaciclib + Dasatinib; first compound 0.009487 µM) | relative viability (Dinaciclib + Dasatinib; first compound 0.03 µM) | relative viability (Dinaciclib + Dasatinib; first compound 0.09487 µM) | relative viability (Dinaciclib + Dasatinib; first compound 0.3 µM)
1 | NCI-H2087 | 0.222 | 0.0979 | 0.0821 | 0.0868 | 0.753 | 0.114 | 0.12 | 0.0878 | 0.639 | 0.0883 | 0.0953 | 0.112 | 0.69 | 0.164 | 0.155 | 0.133 | 0.808 | 0.0939 | 0.0743 | 0.0752
2 | NCI-H2126 | 0.799 | 0.218 | 0.222 | 0.19 | 0.817 | 0.345 | 0.176 | 0.194 | 0.89 | 0.449 | 0.186 | 0.169 | 0.692 | 0.555 | 0.197 | 0.207 | 0.54 | 0.187 | 0.212 | 0.187
3 | NCI-H2228 | 0.333 | 0.137 | 0.0995 | 0.0912 | 0.749 | 0.213 | 0.131 | 0.136 | 0.793 | 0.181 | 0.101 | 0.143 | 0.715 | 0.466 | 0.109 | 0.13 | 0.399 | 0.106 | 0.0787 | 0.0912
4 | NCI-H2347 | 0.425 | 0.17 | 0.138 | 0.174 | 0.515 | 0.304 | 0.252 | 0.228 | 0.523 | 0.241 | 0.216 | 0.209 | 1.03 | 0.355 | 0.273 | 0.266 | 0.344 | 0.246 | 0.173 | 0.171
5 | NCI-H2405 | 0.619 | 0.2 | 0.213 | 0.208 | 0.813 | 0.211 | 0.217 | 0.201 | 0.654 | 0.242 | 0.225 | 0.23 | 0.989 | 0.25 | 0.262 | 0.235 | 0.228 | 0.259 | 0.224 | 0.218
6 | NCI-H3122 | 0.169 | 0.091 | 0.0926 | 0.0829 | 1.05 | 0.095 | 0.0953 | 0.0902 | 0.579 | 0.0996 | 0.0974 | 0.0928 | 0.932 | 0.147 | 0.145 | 0.147 | 0.616 | 0.0841 | 0.0766 | 0.0827
7 | PC-3 [JPC-3] | 0.889 | 0.745 | 0.274 | 0.215 | 0.915 | 0.56 | 0.277 | 0.323 | 1.09 | 0.57 | 0.321 | 0.288 | 0.912 | 0.991 | 0.537 | 0.237 | 0.991 | 0.978 | 0.465 | 0.194
8 | PC-14 | 0.454 | 0.0566 | 0.0448 | 0.038 | 0.737 | 0.251 | 0.0426 | 0.0456 | 0.143 | 0.0629 | 0.0502 | 0.0532 | 0.873 | 0.244 | 0.0973 | 0.0775 | 0.153 | 0.0351 | 0.0238 | 0.0244
9 | RERF-LC-KJ | 0.45 | 0.18 | 0.179 | 0.167 | 0.652 | 0.373 | 0.141 | 0.135 | 0.466 | 0.166 | 0.155 | 0.154 | 0.924 | 0.193 | 0.147 | 0.099 | 0.36 | 0.192 | 0.15 | 0.159
10 | SK-LU-1 | 0.329 | 0.132 | 0.131 | 0.119 | 0.65 | 0.241 | 0.233 | 0.208 | 0.381 | 0.173 | 0.165 | 0.16 | 0.859 | 0.218 | 0.165 | 0.221 | 0.173 | 0.142 | 0.134 | 0.135
11 | SK-MES-1 | 0.777 | 0.157 | 0.156 | 0.139 | 1.23 | 0.156 | 0.161 | 0.148 | 0.333 | 0.16 | 0.139 | 0.139 | 1.08 | 0.493 | 0.168 | 0.164 | 0.217 | 0.109 | 0.0863 | 0.114
12 | SW 1573 | 0.141 | 0.0738 | 0.0542 | 0.0806 | 0.444 | 0.071 | 0.0779 | 0.0742 | 0.224 | 0.0736 | 0.062 | 0.0659 | 0.679 | 0.109 | 0.0988 | 0.0866 | 0.161 | 0.0578 | 0.0571 | 0.06
13 | UMC-11 | 0.2 | 0.215 | 0.202 | 0.173 | 0.229 | 0.174 | 0.167 | 0.167 | 0.176 | 0.157 | 0.146 | 0.165 | 0.282 | 0.167 | 0.169 | 0.168 | 0.209 | 0.175 | 0.142 | 0.144
